Reference: ChEMBL document CHEMBL1143799, “Synthesis and primary cytotoxicity evaluation of new imidazo[2,1-b]thiazole derivatives” (2007)

Legend:
Assay type in all cases: functional
MOLT-4 = test: Growth inhibition of human MOLT4 cells after 48 hrs by SRB protein assay; settings: MOLT-4, 48 h
RPMI-8226 = test: Growth inhibition of human RPMI8226 cells after 48 hrs by SRB protein assay; settings: RPMI-8226, 48 h
A549 = test: Growth inhibition of human A549 cells after 48 hrs by SRB protein assay; settings: A549, 48 h
EKVX = test: Growth inhibition of human EKVX cells after 48 hrs by SRB protein assay
NCI-H23 = test: Growth inhibition of human NCI-H23 cells after 48 hrs by SRB protein assay; settings: NCI-H23, 48 h
NCI-H460 = test: Growth inhibition of human NCI-H460 cells after 48 hrs by SRB protein assay; settings: NCI-H460, 48 h
NCI-H522 = test: Growth inhibition of human NCI-H522 cells after 48 hrs by SRB protein assay; settings: NCI-H522, 48 h
COLO 205 = test: Growth inhibition of human COLO205 cells after 48 hrs by SRB protein assay; settings: COLO 205, 48 h
HCC 2998 = test: Growth inhibition of human HCC2998 cells after 48 hrs by SRB protein assay; settings: HCC 2998, 48 h
HCT-116 = test: Growth inhibition of human HCT116 cells after 48 hrs by SRB protein assay; settings: HCT-116, 48 h
HT-29 = test: Growth inhibition of human HT29 cells after 48 hrs by SRB protein assay; settings: HT-29, 48 h
KM12 = test: Growth inhibition of human KM12 cells after 48 hrs by SRB protein assay; settings: KM12, 48 h
SW-620 = test: Growth inhibition of human SW620 cells after 48 hrs by SRB protein assay; settings: SW-620, 48 h
SF-539 = test: Growth inhibition of human SF539 cells after 48 hrs by SRB protein assay; settings: SF-539, 48 h
SNB-75 = test: Growth inhibition of human SNB75 cells after 48 hrs by SRB protein assay; settings: SNB-75, 48 h
U-251 = test: Growth inhibition human U251 of cells after 48 hrs by SRB protein assay; settings: U-251, 48 h
M14 = test: Growth inhibition of human M14 cells after 48 hrs by SRB protein assay; settings: M14, 48 h
SK-MEL-2 = test: Growth inhibition of human SK-MEL-2 cells after 48 hrs by SRB protein assay; settings: SK-MEL-2, 48 h
UACC-257 = test: Growth inhibition of human UACC257 cells after 48 hrs by SRB protein assay; settings: UACC-257, 48 h
UACC-62 = test: Growth inhibition of human UACC62 cells after 48 hrs by SRB protein assay; settings: UACC-62, 48 h
IGROV-1 = test: Growth inhibition of human IGROV1 cells after 48 hrs by SRB protein assay; settings: IGROV-1, 48 h
OVCAR-3 = test: Growth inhibition of human OVCAR-3 cells after 48 hrs by SRB protein assay; settings: OVCAR-3, 48 h
OVCAR-8 = test: Growth inhibition of human OVCAR8 cells after 48 hrs by SRB protein assay; settings: OVCAR-8, 48 h
SK-OV-3 = test: Growth inhibition of human SK-OV-3 cells after 48 hrs by SRB protein assay; settings: SK-OV-3, 48 h
ACHN = test: Growth inhibition of human ACHN cells after 48 hrs by SRB protein assay
CAKI-1 = test: Growth inhibition of human CAKI1 cells after 48 hrs by SRB protein assay; settings: CAKI-1, 48 h
RXF 393 = test: Growth inhibition of human RXF393 cells after 48 hrs by SRB protein assay; settings: RXF 393, 48 h
SN12C = test: Growth inhibition of human SN12C cells after 48 hrs by SRB protein assay
UO-31 = test: Growth inhibition of human UO31 cells after 48 hrs by SRB protein assay; settings: UO-31, 48 h
PC-3 = test: Growth inhibition of human PC3 cells after 48 hrs by SRB protein assay; settings: PC-3, 48 h
DU-145 = test: Growth inhibition of human DU145 cells after 48 hrs by SRB protein assay; settings: DU-145, 48 h
MCF7 = test: Growth inhibition of human MCF7 cells after 48 hrs by SRB protein assay; settings: MCF7, 48 h
MDA-MB-231 = test: Growth inhibition of MDA-MB-231 cells after 48 hrs by SRB protein assay; settings: Homo sapiens, MDA-MB-231, 48 h
Hs-578T = test: Growth inhibition of human HS578T cells after 48 hrs by SRB protein assay
MDA-MB-435 = test: Growth inhibition of human MDA-MB-435 cells after 48 hrs by SRB protein assay; settings: MDA-MB-435, 48 h
SK-MEL-5 = test: Growth inhibition of human SK-MEL-5 cells after 48 hrs by SRB protein assay; settings: SK-MEL-5, 48 h
BT-549 = test: Growth inhibition of human BT549 cells after 48 hrs by SRB protein assay; settings: BT-549, 48 h
T47D = test: Growth inhibition of human T47D cells after 48 hrs by SRB protein assay
OVCAR-5 = test: Growth inhibition of human OVCAR5 cells after 48 hrs by SRB protein assay; settings: OVCAR-5, 48 h

Which GI50 (MOLT-4) does the source give for `Nc1nc2[nH]cnc2c(=S)[nH]1` [THIOGUANINE] here?
Its GI50 is 0.269 µM.

What about the TGI (MOLT-4; read-out: Log TGI (converted)) of the same compound?
The TGI was 15.5 µM.

And the GI50 (RPMI-8226)?
Its GI50 is 0.398 µM.

And the TGI (RPMI-8226; read-out: Log TGI (converted))?
Its TGI is 20.9 µM.

What about the GI50 (A549) of the same compound?
Its GI50 is 3.55 µM.

What about the TGI (A549; read-out: Log TGI (converted)) of the same compound?
The TGI was 105 µM.

What about the GI50 (EKVX) of the same compound?
The GI50 was 1.91 µM.

And the TGI (EKVX; read-out: Log TGI (converted))?
Its TGI is 123 µM.

And the GI50 (NCI-H23)?
The GI50 was 1.07 µM.

And the TGI (NCI-H23; read-out: Log TGI (converted))?
The TGI was 22.9 µM.

What about the GI50 (NCI-H460) of the same compound?
Its GI50 is 0.676 µM.

And the TGI (NCI-H460; read-out: Log TGI (converted))?
Its TGI is 20 µM.

And the GI50 (NCI-H522)?
Its GI50 is 0.912 µM.

What about the TGI (NCI-H522; read-out: Log TGI (converted)) of the same compound?
Its TGI is 6.31 µM.

What about the GI50 (COLO 205) of the same compound?
The GI50 was 1.7 µM.

What about the TGI (COLO 205; read-out: Log TGI (converted)) of the same compound?
Its TGI is 8.91 µM.

What about the GI50 (HCC 2998) of the same compound?
The GI50 was 1 µM.

And the TGI (HCC 2998; read-out: Log TGI (converted))?
Its TGI is 18.2 µM.

And the GI50 (HCT-116)?
The GI50 was 0.537 µM.

What about the TGI (HCT-116; read-out: Log TGI (converted)) of the same compound?
Its TGI is 16.2 µM.

And the GI50 (HT-29)?
Its GI50 is 1.15 µM.

And the TGI (HT-29; read-out: Log TGI (converted))?
The TGI was 105 µM.

What about the GI50 (KM12) of the same compound?
The GI50 was 1.74 µM.

What about the TGI (KM12; read-out: Log TGI (converted)) of the same compound?
The TGI was 31.6 µM.

What about the GI50 (SW-620) of the same compound?
Its GI50 is 18.6 µM.

What about the TGI (SW-620; read-out: Log TGI (converted)) of the same compound?
Its TGI is 63.1 µM.

And the GI50 (SF-539)?
The GI50 was 1.02 µM.

And the TGI (SF-539; read-out: Log TGI (converted))?
The TGI was 69.2 µM.

And the GI50 (SNB-75)?
The GI50 was 1.45 µM.

What about the TGI (SNB-75; read-out: Log TGI (converted)) of the same compound?
Its TGI is 41.7 µM.

What about the GI50 (U-251) of the same compound?
The GI50 was 4.9 µM.

And the TGI (U-251; read-out: Log TGI (converted))?
The TGI was 240 µM.

And the GI50 (M14)?
The GI50 was 0.589 µM.

And the TGI (M14; read-out: Log TGI (converted))?
The TGI was 14.5 µM.

What about the GI50 (SK-MEL-2) of the same compound?
Its GI50 is 0.933 µM.

And the TGI (SK-MEL-2; read-out: Log TGI (converted))?
Its TGI is 10.7 µM.

What about the GI50 (UACC-257) of the same compound?
The GI50 was 2 µM.

And the TGI (UACC-257; read-out: Log TGI (converted))?
The TGI was 97.7 µM.

What about the GI50 (UACC-62) of the same compound?
The GI50 was 0.501 µM.

What about the TGI (UACC-62; read-out: Log TGI (converted)) of the same compound?
Its TGI is 4.57 µM.

And the GI50 (IGROV-1)?
Its GI50 is 4.79 µM.

And the TGI (IGROV-1; read-out: Log TGI (converted))?
The TGI was 145 µM.

And the GI50 (OVCAR-3)?
The GI50 was 0.708 µM.

What about the TGI (OVCAR-3; read-out: Log TGI (converted)) of the same compound?
The TGI was 6.76 µM.

What about the GI50 (OVCAR-8) of the same compound?
Its GI50 is 0.692 µM.

And the TGI (OVCAR-8; read-out: Log TGI (converted))?
The TGI was 60.3 µM.

And the GI50 (SK-OV-3)?
The GI50 was 0.55 µM.

And the TGI (SK-OV-3; read-out: Log TGI (converted))?
Its TGI is 16.6 µM.

What about the GI50 (ACHN) of the same compound?
Its GI50 is 1.95 µM.

What about the TGI (ACHN; read-out: Log TGI (converted)) of the same compound?
Its TGI is 112 µM.

What about the GI50 (CAKI-1) of the same compound?
The GI50 was 0.537 µM.

And the TGI (CAKI-1; read-out: Log TGI (converted))?
The TGI was 15.8 µM.

And the GI50 (RXF 393)?
Its GI50 is 0.759 µM.

And the TGI (RXF 393; read-out: Log TGI (converted))?
The TGI was 7.08 µM.

What about the GI50 (SN12C) of the same compound?
Its GI50 is 1.26 µM.

What about the TGI (SN12C; read-out: Log TGI (converted)) of the same compound?
The TGI was 174 µM.

What about the GI50 (UO-31) of the same compound?
The GI50 was 1.48 µM.

And the TGI (UO-31; read-out: Log TGI (converted))?
Its TGI is 32.4 µM.

What about the GI50 (PC-3) of the same compound?
The GI50 was 1.78 µM.

And the TGI (PC-3; read-out: Log TGI (converted))?
Its TGI is 174 µM.

And the GI50 (DU-145)?
Its GI50 is 0.794 µM.

And the TGI (DU-145; read-out: Log TGI (converted))?
Its TGI is 135 µM.

And the GI50 (MCF7)?
The GI50 was 0.708 µM.

And the TGI (MCF7; read-out: Log TGI (converted))?
The TGI was 42.7 µM.

What about the GI50 (MDA-MB-231) of the same compound?
The GI50 was 1.95 µM.

What about the TGI (MDA-MB-231; read-out: Log TGI (converted)) of the same compound?
The TGI was 166 µM.

What about the GI50 (Hs-578T) of the same compound?
The GI50 was 7.41 µM.

What about the TGI (Hs-578T; read-out: Log TGI (converted)) of the same compound?
The TGI was 182 µM.

And the GI50 (MDA-MB-435)?
The GI50 was 0.851 µM.

What about the TGI (MDA-MB-435; read-out: Log TGI (converted)) of the same compound?
The TGI was 32.4 µM.

What about the GI50 (SK-MEL-5) of the same compound?
Its GI50 is 3.55 µM.

And the TGI (SK-MEL-5; read-out: Log TGI (converted))?
Its TGI is 16.6 µM.

What about the GI50 (BT-549) of the same compound?
The GI50 was 3.63 µM.

What about the TGI (BT-549; read-out: Log TGI (converted)) of the same compound?
The TGI was 162 µM.

What about the GI50 (T47D) of the same compound?
Its GI50 is 2.04 µM.

And the TGI (T47D; read-out: Log TGI (converted))?
The TGI was 107 µM.

And the GI50 (OVCAR-5)?
The GI50 was 0.661 µM.

And the TGI (OVCAR-5; read-out: Log TGI (converted))?
Its TGI is 47.9 µM.
